Experimental data taken from patent publication US6426360B1, “4,5-substituted imidazolyl compounds for the treatment of inflammation” (G D Searle & Co., priority 1994, dated 2002).

What was measured:
Human COX I = biological target: T1, Human COX I (Homo sapiens, UniProt P23219); assay: COX I activity in vitro (PGE2 ELISA, recombinant enzyme); assay type: biochemical; settings: arachidonic acid 10 μM, pre-incubation 10-20 minutes; read-out: Human COX I ID50
T1 construct: A 2.0 kb fragment containing the coding region of either human or murine COX-I or human or murine COX-II; made in house; host or cells: SF9 insect cells (recombinant baculovirus, transfer vector pVL1393)
Method: (§1) A 2.0 kb fragment containing the coding region of either human or murine COX-I or human or murine COX-II was cloned into a BamH1 site of the baculovirus transfer vector pVL1393 (Invitrogen) to generate the baculovirus transfer vectors for COX-I and COX-II in a manner similar to the method of D. R. O'Reilly et al (Baculovirus Expression Vectors: A Laboratory Manual (1992)). Recombinant baculoviruses were isolated by transfecting 4 μg of baculovirus transfer vector DNA into SF9 insect cells ([…]) along with 200 ng of linearized baculovirus plasmid DNA by the calcium phosphate method. See M. D. Summers and G. E. Smith, A Manual of Methods for Baculovirus Vectors and Insect Cell Culture Procedures, Texas Agric. Exp. Station Bull. 1555 (1987). Recombinant viruses were purified by three rounds of plaque purification and high titer (10E7-10E8 pfu/ml), stocks of virus were prepared. For large scale production, SF9 insect cells were infected in 10 liter fermentors (0.5×10^6/ml) with the recombinant baculovirus stock such that the multiplicity of infection was 0.1. After 72 hours the cells were centrifuged and the cell pellet homogenized in Tris/Sucrose (50 mM: 25%, pH 8.0) containing 1% 3-[(3-cholamidopropyl)dimethylammonio]-1-propanesulfonate (CHAPS). The homogenate was centrifuged at 10,000×G for 30 minutes, and the resultant supernatant was stored at −80° C. before being assayed for COX activity.
(§2) COX activity was assayed as PGE2 formed/μg protein/time using an ELISA to detect the prostaglandin released. CHAPS-solubilized insect cell membranes containing the appropriate COX enzyme were incubated in a potassium phosphate buffer (50 mM, pH 8.0) containing epinephrine, phenol, and heme with the addition of arachidonic acid (10 μM). Compounds were pre-incubated with the enzyme for 10-20 minutes prior to the addition of arachidonic acid. Any reaction between the arachidonic acid and the enzyme was stopped after ten minutes at 37° C./room temperature by transferring 40 μl of reaction mix into 160 μl ELISA buffer and 25 μM indomethacin. The PGE2 formed was measured by standard ELISA technology (Cayman Chemical).

Human COX II = biological target: T2, Human COX II (Homo sapiens, UniProt P35354); assay: COX II activity in vitro (PGE2 ELISA, recombinant enzyme); assay type: biochemical; settings: arachidonic acid 10 μM, pre-incubation 10-20 minutes; read-out: Human COX II ID50
T2 construct: A 2.0 kb fragment containing the coding region of either human or murine COX-I or human or murine COX-II; made in house; host or cells: SF9 insect cells (recombinant baculovirus, transfer vector pVL1393)
T2 sequence (P35354 18-604): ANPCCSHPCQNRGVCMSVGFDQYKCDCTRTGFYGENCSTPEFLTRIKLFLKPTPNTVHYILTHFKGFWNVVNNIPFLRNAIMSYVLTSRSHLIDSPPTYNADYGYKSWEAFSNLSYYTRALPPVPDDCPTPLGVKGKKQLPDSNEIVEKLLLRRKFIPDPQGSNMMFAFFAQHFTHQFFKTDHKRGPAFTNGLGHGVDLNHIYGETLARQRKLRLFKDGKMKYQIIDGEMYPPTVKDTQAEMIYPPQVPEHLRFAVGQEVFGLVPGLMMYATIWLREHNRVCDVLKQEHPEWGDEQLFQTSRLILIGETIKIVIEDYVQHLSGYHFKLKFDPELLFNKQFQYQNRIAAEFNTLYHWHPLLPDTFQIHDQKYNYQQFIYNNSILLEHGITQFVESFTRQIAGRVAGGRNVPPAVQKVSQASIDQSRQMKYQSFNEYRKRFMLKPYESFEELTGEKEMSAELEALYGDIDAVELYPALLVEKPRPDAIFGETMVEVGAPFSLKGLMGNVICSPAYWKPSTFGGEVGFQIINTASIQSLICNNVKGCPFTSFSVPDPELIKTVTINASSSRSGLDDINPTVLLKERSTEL
Method: The COX II inhibition activity of the compounds of this invention illustrated in the Examples was determined by the following methods.
as §1, §2

T1 sequence (P23219 24-599): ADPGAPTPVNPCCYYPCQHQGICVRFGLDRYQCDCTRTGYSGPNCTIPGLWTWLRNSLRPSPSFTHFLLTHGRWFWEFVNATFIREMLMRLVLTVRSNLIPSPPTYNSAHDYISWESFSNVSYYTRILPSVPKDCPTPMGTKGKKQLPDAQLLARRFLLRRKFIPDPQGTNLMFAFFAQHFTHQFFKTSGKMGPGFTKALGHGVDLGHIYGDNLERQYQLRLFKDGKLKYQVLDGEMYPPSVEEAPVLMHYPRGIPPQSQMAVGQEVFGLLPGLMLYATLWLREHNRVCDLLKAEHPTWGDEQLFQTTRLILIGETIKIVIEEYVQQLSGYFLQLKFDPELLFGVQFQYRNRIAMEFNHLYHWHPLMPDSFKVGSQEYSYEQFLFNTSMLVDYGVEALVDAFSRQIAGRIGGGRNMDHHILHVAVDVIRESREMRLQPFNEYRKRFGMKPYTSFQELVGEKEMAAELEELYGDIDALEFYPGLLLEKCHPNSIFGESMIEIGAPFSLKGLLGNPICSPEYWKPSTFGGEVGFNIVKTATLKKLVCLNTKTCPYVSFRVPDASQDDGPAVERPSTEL

Compound: CS(=O)(=O)c1ccc(-c2[nH]c(C(=O)CCc3ccccc3)nc2-c2ccc(F)cc2)cc1 [Example 85]
- melting point: 227 to 231 °C
- IC50 (Human COX I): > 100 µM
- IC50 (Human COX II): 0.4 µM

Compound: CS(=O)(=O)c1ccc(-c2nc(-c3cc4ccccc4o3)[nH]c2-c2ccc(F)cc2)cc1 [Example 4, 2-(2-Benzofuryl)-5-(4-fluorophenyl)-4-(4-methylsulfonylphenyl)-1H-imidazole]
- melting point: 235 to 237 °C
- IC50 (Human COX I): > 100 µM
- IC50 (Human COX II): 0.5 µM

Compound: CS(=O)(=O)c1ccc(-c2nc(C(F)(F)F)[nH]c2C2CCCCCC2)cc1 [Example 72, 5-[4-Cycloheptyl)-4-[4-(methylsulfonyl)phenyl]-2-(trifluoromethyl)-1H-imidazole]
- melting point: 206 to 207 °C
- IC50 (Human COX I): > 100 µM
- IC50 (Human COX II): 3 µM

Compound: CS(=O)(=O)c1ccc(-c2nc(COc3ccccc3)[nH]c2-c2ccc(F)cc2)cc1 [Example 2, 5-(4-Fluorophenyl)-4-(4-methylsulfonylphenyl)-2-phenoxymethyl-1H-imidazole]
- melting point: 189 to 190 °C
- IC50 (Human COX I): > 100 µM
- IC50 (Human COX II): 0.2 µM

Compound: CS(=O)(=O)c1ccc(-c2nc(C(F)(F)F)[nH]c2-c2ccccc2)cc1 [Example 19, 4-[4-(Methylsulfonyl)phenyl]-5-phenyl-2-(trifluoromethyl)-1H-imidazole]
- melting point: 228 to 230 °C
- IC50 (Human COX I): > 100 µM
- IC50 (Human COX II): 0.5 µM

Compound: CS(=O)(=O)c1ccc(-c2[nH]c(SCc3ccc4ccccc4n3)nc2-c2ccc(F)cc2)cc1 [Example 50, 2-[[[4-(4-Fluorophenyl)-5-[4-(methylsulfonyl)phenyl]-1H-imidazol-2-yl]thio]methyl]quinoline]
- melting point: 179 to 182 °C
- IC50 (Human COX I): > 100 µM
- IC50 (Human COX II): 1.5 µM

Compound: C=CCOCc1nc(-c2ccc(F)cc2)c(-c2ccc(S(C)(=O)=O)cc2)[nH]1 [Example 80, 4-(4-Fluorophenyl)-5-[4-(methylsulfonyl)phenyl]-2-[(2-propenyloxy)methyl]-1H-imidazole]
- IC50 (Human COX I): > 100 µM
- IC50 (Human COX II): 2.9 µM

Compound: CS(=O)(=O)c1ccc(-c2nc(C(F)(F)F)[nH]c2-c2ccc(F)c(F)c2)cc1 [Example 18, 5-(3,4-Difluorophenyl)-4-[4-(methylsulfonyl)phenyl]-2-(trifluoromethyl)-1H-imidazole]
- IC50 (Human COX I): > 100 µM
- IC50 (Human COX II): 0.2 µM

Compound: CC(=O)c1nc(-c2ccc(F)cc2)c(-c2ccc(S(C)(=O)=O)cc2)[nH]1 [Example 83, 1-[4-(4-Fluorophenyl)-5-[4-(methylsulfonyl)phenyl]-1H-imidazol-2-yl] ethanone]
- melting point: 215 to 217 °C
- IC50 (Human COX I): > 100 µM
- IC50 (Human COX II): 4.3 µM

Compound: CS(=O)(=O)c1ccc(-c2[nH]c(C(=O)C(F)(F)F)nc2-c2ccc(F)cc2)cc1 [Example 89]
- melting point: 291.7 °C
- IC50 (Human COX I): > 100 µM
- IC50 (Human COX II): 5.3 µM

Compound: CS(=O)(=O)c1ccc(-c2[nH]c(S(=O)(=O)Cc3ccccc3)nc2-c2ccc(F)cc2)cc1 [Example 51, 4-(4-Fluorophenyl)-5-[4-(methylsulfonyl)phenyl]-2-[(phenylmethyl)sulfonyl]-1H-imidazole]
- melting point: 211 to 213 °C
- IC50 (Human COX I): > 100 µM
- IC50 (Human COX II): 1.7 µM

Compound: CC(F)(F)c1nc(-c2ccc(F)cc2)c(-c2ccc(S(C)(=O)=O)cc2)[nH]1 [Example 95, 2-(1,1-Difluoroethyl)-4-(4-fluorophenyl)-5-[4-(methyl-sulfonyl)phenyl]-1H-imidazole]
- melting point: 211 °C
- IC50 (Human COX I): > 100 µM
- IC50 (Human COX II): 2.4 µM

Compound: CS(=O)(=O)c1ccc(-c2nc(C(F)(F)F)[nH]c2-c2ccc(Br)s2)cc1 [Example 47, 5-(5-Bromothien-2-yl)-4-[4-(methylsulfonyl)phenyl]-2-(trifluoromethyl)-1H-imidazole]
- melting point: 261 to 262 °C
- IC50 (Human COX I): 12.9 µM
- IC50 (Human COX II): 0.1 µM

Compound: CS(=O)(=O)c1ccc(-c2nc(-c3ccco3)[nH]c2-c2ccc(F)cc2)cc1 [Example 7, 5-(4-Fluorophenyl)-2-(2-furyl)-4-(4-methylsulfonylphenyl)-1H-imidazole]
- melting point: 244 to 246 °C (dec.)
- IC50 (Human COX I): > 100 µM
- IC50 (Human COX II): 4.8 µM

Compound: CS(=O)(=O)c1ccc(-c2nc(C(F)(F)F)[nH]c2-c2cccc(C#N)c2)cc1 [Example 63]
- IC50 (Human COX I): > 100 µM
- IC50 (Human COX II): 1.3 µM

Compound: CS(=O)(=O)c1ccc(-c2nc(C(F)(F)F)[nH]c2-c2ccccc2Cl)cc1 [Example 12, 5-(2-Chlorophenyl)-4-[4-(methylsulfonyl)phenyl]-2-(trifluoromethyl)-1H-imidazole]
- IC50 (Human COX I): > 100 µM
- IC50 (Human COX II): 1.3 µM

Compound: Cn1c(C(F)(F)F)nc(-c2ccc(S(C)(=O)=O)cc2)c1-c1ccc(F)cc1 [Example 44, 5-(4-Fluorophenyl)-1-methyl-4-[4-(methylsulfonyl)phenyl]-2-(trifluoromethyl)-1H-imidazole]
- IC50 (Human COX I): > 100 µM
- IC50 (Human COX II): 12.8 µM

Compound: CS(=O)(=O)c1ccc(-c2nc(C(F)(F)F)[nH]c2-c2ccc(Cl)cc2)cc1 [Example 11, 5-(4-Chlorophenyl)-4-[4-(methylsulfonyl)phenyl]-2-(trifluoromethyl)-1H-imidazole]
- IC50 (Human COX I): 10.4 µM
- IC50 (Human COX II): 0.4 µM

Compound: CS(=O)(=O)c1ccc(-c2nc(-c3ccoc3)[nH]c2-c2ccc(F)cc2)cc1 [Example 20, 5-(4-Fluorophenyl)-2-(3-furyl)-4-(4-methylsulfonylphenyl)-1H-imidazole]
- melting point: 233 to 235 °C (dec.)
- IC50 (Human COX I): > 100 µM
- IC50 (Human COX II): 40.7 µM

Compound: CC(C)c1nc(-c2ccc(S(C)(=O)=O)cc2)c(-c2ccc(F)cc2)[nH]1 [Example 5, 5-(4-Fluorophenyl)-2-isopropyl-4-(4-methylsulfonylphenyl)-1H-imidazole]
- melting point: 214 to 215 °C
- IC50 (Human COX I): > 100 µM
- IC50 (Human COX II): 1.2 µM

Compound: CSc1ccc(-c2[nH]c(C(F)(F)F)nc2-c2ccc(S(C)(=O)=O)cc2)cc1Cl [Example 55, 5-[3-Chloro-4-(methylthio)phenyl]-4-[4-(methylsulfonyl)phenyl]-2-(trifluoromethyl)-1H-imidazole]
- melting point: 255 to 257 °C
- IC50 (Human COX I): > 100 µM
- IC50 (Human COX II): 0.3 µM

Compound: CC(O)(c1nc(-c2ccc(F)cc2)c(-c2ccc(S(C)(=O)=O)cc2)[nH]1)C(F)(F)F (stereo not drawn) [Example 91, 4-(4-Fluorophenyl)-α-methyl-5-[4-(methylsulfonyl)phenyl]-α-(trifluoromethyl)-1H-imidazole-2-methanol]
- IC50 (Human COX I): > 100 µM
- IC50 (Human COX II): 5.9 µM

Compound: CS(=O)(=O)c1ccc(-c2nc(C(F)(F)F)[nH]c2-c2cccnc2)cc1 [Example 62, 4-(4-(Methylsulfonyl)phenyl]-5-(3-pyridyl)-2-(trifluoromethyl)-1H-imidazole]
- IC50 (Human COX I): > 100 µM
- IC50 (Human COX II): 2.4 µM

Compound: CS(=O)(=O)c1ccc(-c2[nH]c(S(=O)(=O)c3ccccc3)nc2-c2ccc(F)cc2)cc1 [Example 92, 4-(4-Fluorophenyl)-5-[4-(methylsulfonyl)phenyl]-2-(phenyl-sulfonyl)-1H-imidazole]
- IC50 (Human COX I): > 100 µM
- IC50 (Human COX II): 3 µM

Compound: CS(=O)(=O)c1ccc(-c2[nH]c(COCc3ccccc3)nc2-c2ccc(F)cc2)cc1 [Example 82, 4-(4-Fluorophenyl)-5-[4-(methylsulfonyl)phenyl]-2-(phenyl-methoxymethyl)-1H-imidazole]
- IC50 (Human COX I): > 100 µM
- IC50 (Human COX II): 0.7 µM

Compound: Cc1cccc(-c2[nH]c(C(F)(F)F)nc2-c2ccc(S(N)(=O)=O)cc2)c1 [Example 60, 5-(3-Methylphenyl)-4-[4-(sulfonamido)phenyl]-2-trifluoromethyl-1H-imidazole]
- IC50 (Human COX I): 6.2 µM
- IC50 (Human COX II): 0.1 µM
